# In patent US7589109B2, “Oxyindole derivatives” (Pfizer Inc, priority 2005, dated 2009):
# Target: T1, 5-HT4 receptors in the rat esophagus (Rattus norvegicus, UniProt Q62758)
# T1 construct: The remaining inner tube of smooth muscle was known as the TMM; tissue Charles River (animals); host or cells: rat esophagus tunica muscularis mucosae (TMM) smooth muscle, organ bath
# Assay: TMM functional assay
# Conditions: 1 μM antagonist added to bath; carbachol-contracted rat TMM relaxed by 5-HT
# Source text: More specifically, partial agonist activity can be measured according to the following procedures.
# Male SD rats (Charles River) weighing 250-350 g were stunned and then killed by cervical dislocation. The esophagus was dissected from immediately proximal to the stomach (including piece of stomach to mark distal end) up to the level of the trachea and then placed in fresh Krebs' solution.
# The outer skeletal muscle layer was removed in one go by peeling it away from the underlying smooth muscle layer using forceps (stomach to tracheal direction). The remaining inner tube of smooth muscle was known as the TMM. This was trimmed to 2 cm from the original ‘stomach-end’ and the rest discarded.
# The TMMs were mounted as whole ‘open’ tubes in longitudinal orientation in 5 ml organ baths filled with warm (32° C.) aerated Krebs. Tissues were placed under an initial tension of 750 mg and allowed to equilibrate for 60 minutes. The tissues were re-tensioned twice at 15 minute intervals during the equilibration period. The pump flow rate was set to 2 ml/min during this time.
# Following equilibration, the pump was switched off. The tissues were exposed to 1 μM carbachol and contracted and reached a steady contractile plateau within 15 minutes. Tissues were then subject to 1 μM 5-HT (this was to prime the tissues). The tissues relaxed in response to 5-HT fairly rapidly—within 1 minute. […]
# T1 sequence (Q62758 whole entry): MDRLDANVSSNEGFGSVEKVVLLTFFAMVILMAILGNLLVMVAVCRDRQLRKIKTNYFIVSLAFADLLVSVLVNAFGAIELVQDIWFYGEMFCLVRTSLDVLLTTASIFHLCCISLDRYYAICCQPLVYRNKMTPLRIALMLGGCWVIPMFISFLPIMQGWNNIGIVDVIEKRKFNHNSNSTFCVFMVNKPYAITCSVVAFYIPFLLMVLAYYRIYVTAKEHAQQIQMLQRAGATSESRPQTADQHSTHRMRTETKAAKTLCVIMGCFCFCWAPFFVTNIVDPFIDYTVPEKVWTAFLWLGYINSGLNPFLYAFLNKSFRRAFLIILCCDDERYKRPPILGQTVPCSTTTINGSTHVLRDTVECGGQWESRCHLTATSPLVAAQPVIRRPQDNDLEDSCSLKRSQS
row,SMILES,reversal of agonist-induced relaxation
1,"O=C(OCCN1CCCCC1)c1c[nH]c2ccccc12 [SB 203,186, 1H-Indole-3-carboxylic acid, 2-(1-piperidinyl)ethyl ester]",reversed 5-HT induced relaxation

# Tested on: not given
# Assay: not given
# Conditions: not given
row,melting point [°C],SMILES
1,146.3,O=C(NCC1CCN(CC2(C(=O)O)CCOCC2)CC1)N1C(=O)C2(CCCC2)c2ccccc21
2,164.5,CC(C)(CN1CCC(CNC(=O)N2C(=O)C(C)(C)c3ccccc32)CC1)C(=O)O
3,160.4,O=C(NCC1CCN(CC2(C(=O)O)CCCCC2)CC1)N1C(=O)C2(CCCC2)c2ccccc21
4,193,CC1(C)C(=O)N(C(=O)NCC2CCN(CC3(C(=O)O)CCC3)CC2)c2cc(F)ccc21
5,134,CC(C)(CN1CCC(CNC(=O)N2C(=O)C(C)(C)c3ccc(F)cc32)CC1)C(=O)O
6,213,CC1(C)C(=O)N(C(=O)NCC2CCN(C(C)(C)C(=O)O)CC2)c2cc(F)ccc21
7,189.1,CC(C)(CN1CCC(CNC(=O)N2C(=O)C3(CCCC3)c3ccccc32)CC1)C(=O)O
8,176,CC(C)(CN1CCC(F)(CNC(=O)N2C(=O)C(C)(C)c3ccc(F)cc32)CC1)C(=O)O
9,156,CC(C)(CN1CCC(F)(CNC(=O)N2C(=O)C(C)(C)c3ccccc32)CC1)C(=O)O
10,159,CC1(C)C(=O)N(C(=O)NCC2(O)CCN(CC3(C(=O)O)CCC3)CC2)c2cc(F)ccc21
11,186.5,O=C(NCC1CCN(CC2(C(=O)O)CC2)CC1)N1C(=O)C2(CCCC2)c2ccccc21
12,188.1,O=C(NCC1CCN(CC2(C(=O)O)CCCC2)CC1)N1C(=O)C2(CCCC2)c2ccccc21
13,171,O=C(NCC1CCN(CC2(C(=O)O)CCC2)CC1)N1C(=O)C2(CCCC2)c2ccccc21
14,150.3,O=C(NCC1CCN(CC2(C(=O)O)CCC2)CC1)N1C(=O)C2(CCCC2)c2ccc(F)cc21
15,161.3,O=C(NCC1CCN(CC2(C(=O)O)CCOCC2)CC1)N1C(=O)C2(CCCC2)c2ccc(F)cc21
16,170.9,CC1(C)C(=O)N(C(=O)NCC2CCN(CC3(C(=O)O)CCC3)CC2)c2ccccc21
